Measured values: the supplement of paper PMC11061612

Tests used:
Experiment in all cases: Bliss excess, mean over the matrix (fraction); higher = more synergy
[1] = tested on: SAS (Oral Cavity Carcinoma)
Method in brief: (§1)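 Bliss excess equals the observed combination effect minus the expected value EA + EB − EA·EB, where EA and EB are the effects of each agent alone. Combination Emax is the second-highest inhibition within the matrix. Inhibition was scaled from CellTiter-Glo 2.0 luminescence, with 0 set by vehicle wells and 1 by blank wells, after 72 hours of two-drug dosing of cells plated in 1536-well plates.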

[2] = tested on: OE21 (Esophageal Squamous Cell Carcinoma)
Method in brief: as §1

[3] = tested on: SNU-449 (Hepatocellular Carcinoma)
Method in brief: as §1

[4] = tested on: TGBC1TKB (Biliary Tract Carcinoma)
Method in brief: as §1

[5] = tested on: Hs-746T (Gastric Carcinoma)
Method in brief: as §1

BE2-M17 (Neuroblastoma) = tested on: BE2-M17 (Neuroblastoma)
Method in brief: as §1

[6] = tested on: NCI-H524 (Small Cell Lung Carcinoma)
Method in brief: as §1

MPP-89 (Mesothelioma) = tested on: MPP-89 (Mesothelioma)
Method in brief: as §1

[7] = tested on: WSU-NHL (B-Cell Non-Hodgkin's Lymphoma)
Method in brief: as §1

[8] = tested on: LS-123 (Colorectal Carcinoma)
Method in brief: as §1

Cn1cnc2c(F)c(Nc3ccc(Br)cc3Cl)c(C(=O)NOCCO)cc21 [Selumetinib] + CCN(CCO)CCCOc1ccc2c(Nc3cc(CC(=O)Nc4cccc(F)c4)[nH]n3)ncnc2c1 [AZD2811] (first compound max 10 µM, 7x7, partner max 1 µM)
Bliss excess [1]: -0.0274 | Bliss excess [2]: 0.0238 | Bliss excess [3]: -0.0582 | Bliss excess [4]: 0 | Bliss excess [5]: -0.0051 | Bliss excess (BE2-M17 (Neuroblastoma)): -0.0073 | Bliss excess [6]: -0.0101 | Bliss excess (MPP-89 (Mesothelioma)): -0.0325 | Bliss excess [7]: -0.0209 | Bliss excess [8]: 0.0199

CC(=O)c1c(C)c2cnc(Nc3ccc(N4CCNCC4)cn3)nc2n(C2CCCC2)c1=O [Palbociclib] + Cn1cnc2c(F)c(Nc3ccc(Br)cc3Cl)c(C(=O)NOCCO)cc21 [Selumetinib] (first compound max 10 µM, 7x7, partner max 10 µM)
Bliss excess [1]: -0.0084 | Bliss excess [2]: 0.0877 | Bliss excess [3]: -0.0006 | Bliss excess [4]: -0.0251 | Bliss excess [5]: -0.0475 | Bliss excess (BE2-M17 (Neuroblastoma)): -0.0339 | Bliss excess [6]: -0.0403 | Bliss excess (MPP-89 (Mesothelioma)): -0.0394 | Bliss excess [7]: 0.107 | Bliss excess [8]: 0.002

Cn1cnc2c(F)c(Nc3ccc(Br)cc3Cl)c(C(=O)NOCCO)cc21 [Selumetinib] + C=CCn1c(=O)c2cnc(Nc3ccc(N4CCN(C)CC4)cc3)nc2n1-c1cccc(C(C)(C)O)n1 [AZD1775] (first compound max 10 µM, partner max 1 µM)
Bliss excess [1]: 0.0324 | Bliss excess [2]: -0.0399 | Bliss excess [3]: -0.0413 | Bliss excess [4]: 0.0366 | Bliss excess [5]: -0.0275 | Bliss excess (BE2-M17 (Neuroblastoma)): -0.11 | Bliss excess [6]: -0.0452 | Bliss excess (MPP-89 (Mesothelioma)): -0.0131 | Bliss excess [7]: -0.0066 | Bliss excess [8]: 0.0099

CC1(C)CCC(CN2CCN(c3ccc(C(=O)NS(=O)(=O)c4ccc(NCC5CCOCC5)c([N+](=O)[O-])c4)c(Oc4cnc5[nH]ccc5c4)c3)CC2)=C(c2ccc(Cl)cc2)C1 [Venetoclax] + C1CN(CCC1(C(=O)N[C@@H](CCO)C2=CC=C(C=C2)Cl)N)C3=NC=NC4=C3C=CN4 [Capivasertib] (first compound max 1 µM, 7x7, partner max 3 µM)
Bliss excess [1]: 0.0016 | Bliss excess [2]: -0.009 | Bliss excess [3]: -0.075 | Bliss excess [4]: -0.0535 | Bliss excess [5]: -0.0705 | Bliss excess (BE2-M17 (Neuroblastoma)): -0.0682 | Bliss excess [6]: -0.0624 | Bliss excess (MPP-89 (Mesothelioma)): -0.0361 | Bliss excess [7]: -0.0282 | Bliss excess [8]: -0.0134

COc1nnc2ccc(N3CCC(c4ccc(OCCN5CCN(C)C(=O)[C@H]5C)cc4)CC3)nn12 [AZD5153] + CCN(CCO)CCCOc1ccc2c(Nc3cc(CC(=O)Nc4cccc(F)c4)[nH]n3)ncnc2c1 [AZD2811] (first compound max 1 µM, 7x7, partner max 1 µM)
Bliss excess [1]: -0.0499 | Bliss excess [2]: -0.0315 | Bliss excess [3]: -0.0179 | Bliss excess [4]: 0.0017 | Bliss excess [5]: -0.058 | Bliss excess (BE2-M17 (Neuroblastoma)): 0.102 | Bliss excess [6]: -0.0138 | Bliss excess (MPP-89 (Mesothelioma)): -0.0396 | Bliss excess [7]: -0.0807 | Bliss excess [8]: -0.0004

NC1(C(=O)N[C@@H](CCO)c2ccc(Cl)cc2)CCN(c2ncnc3[nH]ccc23)CC1 [Capivasertib] + CC(=O)c1c(C)c2cnc(Nc3ccc(N4CCNCC4)cn3)nc2n(C2CCCC2)c1=O [Palbociclib] (first compound max 10 µM, 7x7, partner max 10 µM)
Bliss excess [1]: -0.0211 | Bliss excess [2]: 0.0379 | Bliss excess [3]: 0.001 | Bliss excess [4]: 0.0157 | Bliss excess [5]: -0.0322 | Bliss excess (BE2-M17 (Neuroblastoma)): 0.0059 | Bliss excess [6]: 0.0047 | Bliss excess (MPP-89 (Mesothelioma)): -0.0553 | Bliss excess [7]: -0.0671 | Bliss excess [8]: -0.0026

CC1(C)CCC(CN2CCN(c3ccc(C(=O)NS(=O)(=O)c4ccc(NCC5CCOCC5)c([N+](=O)[O-])c4)c(Oc4cnc5[nH]ccc5c4)c3)CC2)=C(c2ccc(Cl)cc2)C1 [Venetoclax] + C=CCn1c(=O)c2cnc(Nc3ccc(N4CCN(C)CC4)cc3)nc2n1-c1cccc(C(C)(C)O)n1 [AZD1775] (first compound max 1 µM, partner max 1 µM)
Bliss excess [1]: -0.0073 | Bliss excess [2]: 0.0095 | Bliss excess [3]: -0.0353 | Bliss excess [4]: -0.039 | Bliss excess [5]: -0.115 | Bliss excess (BE2-M17 (Neuroblastoma)): -0.0256 | Bliss excess [6]: 0.0089 | Bliss excess (MPP-89 (Mesothelioma)): 0.1 | Bliss excess [7]: -0.0036 | Bliss excess [8]: -0.0165

COc1nnc2ccc(N3CCC(c4ccc(OCCN5CCN(C)C(=O)[C@H]5C)cc4)CC3)nn12 [AZD5153] + Cc1c2c(nn1C)CSCc1cc(n(C)n1)CSc1cc(c3ccccc3c1)OCCCc1c(C(=O)O)n(C)c3c-2c(Cl)ccc13 [AZD5991] (first compound max 1 µM, 7x7, partner max 1 µM)
Bliss excess [1]: -0.0191 | Bliss excess [2]: -0.0089 | Bliss excess [3]: -0.0368 | Bliss excess [4]: 0.0069 | Bliss excess [5]: -0.0244 | Bliss excess (BE2-M17 (Neuroblastoma)): 0.0101 | Bliss excess [6]: 0.0723 | Bliss excess (MPP-89 (Mesothelioma)): -0.0399 | Bliss excess [7]: 0.01 | Bliss excess [8]: -0.0249

CC(=O)c1c(C)c2cnc(Nc3ccc(N4CCNCC4)cn3)nc2n(C2CCCC2)c1=O [Palbociclib] + Cc1c2c(nn1C)CSCc1cc(n(C)n1)CSc1cc(c3ccccc3c1)OCCCc1c(C(=O)O)n(C)c3c-2c(Cl)ccc13 [AZD5991] (first compound max 10 µM, 7x7, partner max 1 µM)
Bliss excess [1]: -0.0318 | Bliss excess [2]: -0.0088 | Bliss excess [3]: -0.0187 | Bliss excess [4]: -0.0082 | Bliss excess [5]: -0.0293 | Bliss excess (BE2-M17 (Neuroblastoma)): 0.0096 | Bliss excess [6]: 0.0019 | Bliss excess (MPP-89 (Mesothelioma)): -0.021 | Bliss excess [7]: -0.0269 | Bliss excess [8]: -0.0376

NC1(C(=O)N[C@@H](CCO)c2ccc(Cl)cc2)CCN(c2ncnc3[nH]ccc23)CC1 [Capivasertib] + COc1nnc2ccc(N3CCC(c4ccc(OCCN5CCN(C)C(=O)[C@H]5C)cc4)CC3)nn12 [AZD5153] (first compound max 10 µM, 7x7, partner max 1 µM)
Bliss excess [1]: -0.0524 | Bliss excess [2]: 0.0333 | Bliss excess [3]: 0.0058 | Bliss excess [4]: 0.02 | Bliss excess [5]: 0.0169 | Bliss excess (BE2-M17 (Neuroblastoma)): 0.0666 | Bliss excess [6]: -0.0155 | Bliss excess (MPP-89 (Mesothelioma)): -0.0632 | Bliss excess [7]: -0.0923 | Bliss excess [8]: 0.0517
